Results on two molecules are retold here after ChEMBL document CHEMBL4507324 (2021).

For test [1], the target named is Tyrosine-protein kinase ABL1 (Homo sapiens) (UniProt P00519). As to conditions: Compound concentration 100.0 nM; call rule not given here.
The target of test [2] is Mitogen-activated protein kinase 11 (Homo sapiens, UniProt Q15759). As to the kind of experiment: NanoBRET (SGC-Frankfurt) (MAPK11). On the technique in general: BRET reads energy transfer from a luciferase to a nearby fluorophore.
Test [3] concerns the target Ribosomal protein S6 kinase alpha-5 (Homo sapiens) (UniProt O75582). The settings on record: Compound concentration 100.0 nM.
Test [4] concerns the target Mitogen-activated protein kinase 14 (Homo sapiens) (UniProt Q16539). The settings on record: Compound concentration 100.0 nM.
The target in test [5] is Sigma intracellular receptor 2 (Homo sapiens) (UniProt Q5BJF2). The settings on record: Compound concentration 10.0 uM.
Chain of Sigma intracellular receptor 2 (Homo sapiens) (Q5BJF2 whole entry): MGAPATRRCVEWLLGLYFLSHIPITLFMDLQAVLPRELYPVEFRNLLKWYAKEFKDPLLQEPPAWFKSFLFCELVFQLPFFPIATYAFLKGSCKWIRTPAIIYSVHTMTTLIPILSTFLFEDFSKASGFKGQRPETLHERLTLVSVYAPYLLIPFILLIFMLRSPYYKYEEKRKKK
Test [6] concerns the target Serine/threonine-protein kinase 38-like (Homo sapiens, UniProt Q9Y2H1). As to the kind of experiment: NanoBRET (SGC-Frankfurt) (STK38L).
For test [7], the target named is Histamine H3 receptor (Homo sapiens) (UniProt Q9Y5N1). As to conditions: Compound concentration 10.0 uM.
Test [8] addresses D(2) dopamine receptor (Homo sapiens) (UniProt P14416). The settings on record: Compound concentration 10.0 uM.
Test [9] concerns the target D(1B) dopamine receptor (Homo sapiens) (UniProt P21918). The settings on record: Compound concentration 10.0 uM.
Test [10] deals with Delta-type opioid receptor (Homo sapiens) (UniProt P41143). As to conditions: Compound concentration 10.0 uM.
The target in test [11] is 5-hydroxytryptamine receptor 7 (Homo sapiens) (UniProt P34969). As to conditions: Compound concentration 10.0 uM.
Chain of 5-hydroxytryptamine receptor 7 (Homo sapiens) (P34969 whole entry): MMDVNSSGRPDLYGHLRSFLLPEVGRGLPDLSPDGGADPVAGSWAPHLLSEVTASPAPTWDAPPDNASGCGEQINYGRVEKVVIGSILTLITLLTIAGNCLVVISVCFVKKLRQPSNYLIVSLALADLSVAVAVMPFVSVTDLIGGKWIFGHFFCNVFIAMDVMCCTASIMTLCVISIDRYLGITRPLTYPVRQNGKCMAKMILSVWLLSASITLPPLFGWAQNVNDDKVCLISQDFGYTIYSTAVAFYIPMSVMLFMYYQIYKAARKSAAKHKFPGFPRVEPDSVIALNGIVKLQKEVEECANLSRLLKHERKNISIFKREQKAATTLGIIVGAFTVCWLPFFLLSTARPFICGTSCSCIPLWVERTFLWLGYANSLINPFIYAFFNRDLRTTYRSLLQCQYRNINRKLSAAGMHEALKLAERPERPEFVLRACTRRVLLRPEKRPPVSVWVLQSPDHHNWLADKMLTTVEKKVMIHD
The target of test [12] is Muscarinic acetylcholine receptor M3 (Homo sapiens) (UniProt P20309). The settings on record: Compound concentration 10.0 uM.
Test [13] addresses Kappa-type opioid receptor (Homo sapiens) (UniProt P41145). As to conditions: Compound concentration 10.0 uM.
For test [14], the target named is Alpha-2C adrenergic receptor (Homo sapiens) (UniProt P18825). The settings on record: Compound concentration 10.0 uM.
Chain of Alpha-2C adrenergic receptor (Homo sapiens) (P18825 whole entry): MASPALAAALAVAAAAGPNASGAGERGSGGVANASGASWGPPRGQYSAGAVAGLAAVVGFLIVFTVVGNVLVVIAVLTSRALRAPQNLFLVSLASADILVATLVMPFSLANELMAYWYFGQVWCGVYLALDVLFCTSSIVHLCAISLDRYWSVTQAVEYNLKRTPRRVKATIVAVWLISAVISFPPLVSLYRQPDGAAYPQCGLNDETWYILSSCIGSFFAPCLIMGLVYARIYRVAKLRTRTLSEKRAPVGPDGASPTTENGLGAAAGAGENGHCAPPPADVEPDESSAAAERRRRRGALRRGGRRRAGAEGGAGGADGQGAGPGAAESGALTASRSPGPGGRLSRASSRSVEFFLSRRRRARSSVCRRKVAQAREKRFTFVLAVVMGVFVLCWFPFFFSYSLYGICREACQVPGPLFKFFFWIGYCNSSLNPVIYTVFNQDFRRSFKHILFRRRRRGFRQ
The target in test [15] is 5-hydroxytryptamine receptor 3A (Homo sapiens) (UniProt P46098). As to conditions: Compound concentration 10.0 uM.
Chain of 5-hydroxytryptamine receptor 3A (Homo sapiens) (P46098 whole entry): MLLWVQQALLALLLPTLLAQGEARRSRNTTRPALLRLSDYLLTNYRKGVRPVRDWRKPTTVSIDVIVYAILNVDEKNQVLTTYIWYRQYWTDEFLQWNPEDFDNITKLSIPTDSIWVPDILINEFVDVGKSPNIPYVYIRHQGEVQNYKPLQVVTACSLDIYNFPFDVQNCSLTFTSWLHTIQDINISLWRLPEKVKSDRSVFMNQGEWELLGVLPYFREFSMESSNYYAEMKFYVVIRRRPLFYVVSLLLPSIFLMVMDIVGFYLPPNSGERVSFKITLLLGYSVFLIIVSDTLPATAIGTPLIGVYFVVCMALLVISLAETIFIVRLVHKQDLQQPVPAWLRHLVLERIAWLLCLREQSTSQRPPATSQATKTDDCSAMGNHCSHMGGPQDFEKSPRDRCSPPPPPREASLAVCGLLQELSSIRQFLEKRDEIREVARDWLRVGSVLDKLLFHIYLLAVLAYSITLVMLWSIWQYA
Test [16] addresses D(1A) dopamine receptor (Homo sapiens) (UniProt P21728). The settings on record: Compound concentration 10.0 uM.
Test [17] has as its target Serine/threonine-protein kinase B-raf (Homo sapiens, UniProt P15056). As to the kind of experiment: NanoBRET (SGC-Frankfurt) (BRAF).

Chain of Ribosomal protein S6 kinase alpha-5 (Homo sapiens) (O75582 whole entry, looked up): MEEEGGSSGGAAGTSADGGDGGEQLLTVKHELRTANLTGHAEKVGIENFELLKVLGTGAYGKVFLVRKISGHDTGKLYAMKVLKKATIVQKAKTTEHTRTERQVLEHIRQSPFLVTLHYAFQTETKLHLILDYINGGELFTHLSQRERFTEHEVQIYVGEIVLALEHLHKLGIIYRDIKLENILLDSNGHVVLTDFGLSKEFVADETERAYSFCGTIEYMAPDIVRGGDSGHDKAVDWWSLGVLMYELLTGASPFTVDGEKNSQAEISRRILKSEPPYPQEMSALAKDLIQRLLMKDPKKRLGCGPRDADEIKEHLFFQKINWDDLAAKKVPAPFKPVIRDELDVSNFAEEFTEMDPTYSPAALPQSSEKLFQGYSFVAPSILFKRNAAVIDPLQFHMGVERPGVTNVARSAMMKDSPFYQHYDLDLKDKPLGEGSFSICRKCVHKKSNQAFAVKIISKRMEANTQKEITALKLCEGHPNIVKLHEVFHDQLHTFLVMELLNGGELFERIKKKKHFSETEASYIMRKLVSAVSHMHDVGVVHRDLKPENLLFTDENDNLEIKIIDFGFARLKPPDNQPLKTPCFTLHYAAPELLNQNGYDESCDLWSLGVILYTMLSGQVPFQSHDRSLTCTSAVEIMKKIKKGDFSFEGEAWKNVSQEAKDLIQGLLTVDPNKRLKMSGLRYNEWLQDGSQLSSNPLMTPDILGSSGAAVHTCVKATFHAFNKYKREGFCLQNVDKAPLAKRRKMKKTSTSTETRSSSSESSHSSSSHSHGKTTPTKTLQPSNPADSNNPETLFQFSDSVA
Chain of Tyrosine-protein kinase ABL1 (Homo sapiens) (P00519 whole entry): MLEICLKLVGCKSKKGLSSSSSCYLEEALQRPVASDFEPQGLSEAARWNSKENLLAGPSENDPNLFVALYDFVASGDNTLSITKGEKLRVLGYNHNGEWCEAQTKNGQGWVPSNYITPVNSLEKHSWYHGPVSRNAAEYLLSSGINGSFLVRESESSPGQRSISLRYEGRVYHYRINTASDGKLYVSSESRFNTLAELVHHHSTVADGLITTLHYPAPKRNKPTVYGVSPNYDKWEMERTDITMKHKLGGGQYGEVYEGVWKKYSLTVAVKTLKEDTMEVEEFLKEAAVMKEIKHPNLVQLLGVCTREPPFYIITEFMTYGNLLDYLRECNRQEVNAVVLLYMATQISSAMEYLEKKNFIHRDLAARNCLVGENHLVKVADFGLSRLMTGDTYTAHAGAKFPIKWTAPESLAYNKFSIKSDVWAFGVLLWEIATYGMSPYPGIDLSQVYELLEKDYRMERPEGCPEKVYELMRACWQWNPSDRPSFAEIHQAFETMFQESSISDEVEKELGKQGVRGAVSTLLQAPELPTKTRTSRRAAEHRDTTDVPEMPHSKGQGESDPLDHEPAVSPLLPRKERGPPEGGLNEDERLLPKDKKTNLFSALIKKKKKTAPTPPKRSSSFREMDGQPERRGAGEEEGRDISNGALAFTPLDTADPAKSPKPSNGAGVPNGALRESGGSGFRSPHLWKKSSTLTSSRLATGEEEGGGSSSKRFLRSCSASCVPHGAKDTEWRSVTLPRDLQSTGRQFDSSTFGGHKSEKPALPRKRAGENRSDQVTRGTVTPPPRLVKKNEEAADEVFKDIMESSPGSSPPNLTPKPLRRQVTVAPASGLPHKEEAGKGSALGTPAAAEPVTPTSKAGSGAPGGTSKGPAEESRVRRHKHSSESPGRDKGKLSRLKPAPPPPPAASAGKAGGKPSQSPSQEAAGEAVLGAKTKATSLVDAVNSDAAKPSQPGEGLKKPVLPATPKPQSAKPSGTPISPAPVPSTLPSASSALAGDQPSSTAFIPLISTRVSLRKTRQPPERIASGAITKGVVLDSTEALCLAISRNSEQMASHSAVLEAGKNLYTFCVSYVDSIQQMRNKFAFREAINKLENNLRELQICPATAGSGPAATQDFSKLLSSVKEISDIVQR
Chain of Mitogen-activated protein kinase 14 (Homo sapiens) (Q16539 whole entry): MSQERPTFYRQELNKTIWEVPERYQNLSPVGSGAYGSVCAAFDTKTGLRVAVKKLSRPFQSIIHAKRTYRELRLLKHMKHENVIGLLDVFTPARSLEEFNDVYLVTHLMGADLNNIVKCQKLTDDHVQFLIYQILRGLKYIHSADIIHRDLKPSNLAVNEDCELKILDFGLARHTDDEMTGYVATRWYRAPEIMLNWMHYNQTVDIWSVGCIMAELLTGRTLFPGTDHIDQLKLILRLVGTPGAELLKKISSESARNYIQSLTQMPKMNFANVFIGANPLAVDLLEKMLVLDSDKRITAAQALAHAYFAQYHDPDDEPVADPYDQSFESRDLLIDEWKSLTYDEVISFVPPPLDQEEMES
Chain of D(1B) dopamine receptor (Homo sapiens) (P21918 whole entry): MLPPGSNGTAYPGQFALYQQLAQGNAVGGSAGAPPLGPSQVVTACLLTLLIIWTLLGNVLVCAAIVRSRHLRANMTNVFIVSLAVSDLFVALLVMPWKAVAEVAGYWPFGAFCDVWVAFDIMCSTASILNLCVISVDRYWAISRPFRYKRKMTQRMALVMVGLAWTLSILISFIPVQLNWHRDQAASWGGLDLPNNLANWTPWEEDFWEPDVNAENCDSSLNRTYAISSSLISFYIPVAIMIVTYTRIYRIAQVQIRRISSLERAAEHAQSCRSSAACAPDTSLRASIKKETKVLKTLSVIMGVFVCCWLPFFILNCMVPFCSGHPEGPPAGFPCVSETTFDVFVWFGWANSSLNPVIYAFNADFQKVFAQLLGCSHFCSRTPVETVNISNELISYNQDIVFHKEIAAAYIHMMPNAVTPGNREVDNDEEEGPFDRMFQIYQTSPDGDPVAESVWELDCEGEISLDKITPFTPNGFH
Chain of Serine/threonine-protein kinase 38-like (Q9Y2H1 whole entry): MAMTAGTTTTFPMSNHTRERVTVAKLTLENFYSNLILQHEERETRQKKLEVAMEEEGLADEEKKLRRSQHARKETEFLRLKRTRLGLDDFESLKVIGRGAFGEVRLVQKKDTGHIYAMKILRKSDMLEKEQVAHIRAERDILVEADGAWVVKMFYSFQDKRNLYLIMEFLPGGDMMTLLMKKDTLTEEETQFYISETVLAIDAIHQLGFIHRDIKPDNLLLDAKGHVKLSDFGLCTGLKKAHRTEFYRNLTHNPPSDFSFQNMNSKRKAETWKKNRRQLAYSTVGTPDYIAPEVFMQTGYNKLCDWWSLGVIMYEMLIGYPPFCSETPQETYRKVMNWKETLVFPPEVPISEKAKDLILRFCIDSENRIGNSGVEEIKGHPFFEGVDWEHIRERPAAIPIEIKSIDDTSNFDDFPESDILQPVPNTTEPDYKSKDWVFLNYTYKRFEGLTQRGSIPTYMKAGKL

What is called IC50 is the concentration at which inhibition is half-maximal. Low readings indicate inhibition by little substance, high ones a need for much substance. `CS(=O)(=O)N1CCCC(NC(=O)[C@H](CCC2CCCCC2)NC(=O)c2ccc(CNc3ncnc4c3nnn4-c3ccccc3)cc2)C1` (some centres not stated) [SR-301]: the residual activity is 88% in test [1], 95% in test [3] and 100% in test [4]. For the same molecule, in test [2], the IC50 was 1.63 µM (not active).
The inhibition is the drop in the measured response relative to a control, in per cent. For `CS(=O)(=O)N1CCCC(NC(=O)[C@H](CCC2CCCCC2)NC(=O)c2ccc(CNC(=O)c3cnc4ccccn34)cc2)C1` (some centres not stated) [SR-302], the inhibition was 32% in test [5]; 0.32% in test [7]; 7.14% in test [8]; 23.5% in test [9]; 8.18% in [10]; 11.3% in [11]. The inhibition in test [12] is 20.6%; in test [13] it was 20.1%; in test [14], 5.25%; in test [15], 3.83%; in [16], -8.61%. Further, the IC50 in test [6] and in [17] was over 25 µM throughout.
